# Experimental data published in patent US9994617B2, “Modulation of structured polypeptide specificity” (BICYCLE THERAPEUTICS LIMITED, priority 2011, dated 2018).
# Numbered stars: 1 amine (or outer) side, 2 acyl side, 3 side chain; on linkers, the order of the positions; unused ones are H or OH. Bridge positions count the residues as written; N and C are the ends. Square brackets hold non-standard residues; d marks the D form. Peptide text beside a SMILES is read from it. NMeW = CN[C@@H](Cc1c[nH]c2ccccc12)C(=O)O; TBMB = c1c(C[*:1])cc(C[*:3])cc1C[*:2]; NMeC = CN[C@@H](CS)C(=O)O; NMeS = CN[C@@H](CO)C(=O)O
# Experiments:
# Human thrombin = Human thrombin (Homo sapiens, UniProt P00734); test: Inhibition of paralogous protease thrombin; format: biochemical
# Description: (§1) The target specificity of the isolated bicyclic peptide inhibitors was assessed by determining the inhibition of trypsin-like human serine proteases of the class S1A which comprises 79 members (Yousef, et al, Biochem Biophys Res Commun 2003, 305 (1), 28-36). The panel of proteases included hfXIa which shares the highest sequence identity with hPK (69%) as well as the structurally less related but vital human serine proteases thrombin (36%), plasmin (34% sequence identity with hPK) and factor XIIa (35%).
# [1] = biological target: human plasma kallikrein (hPK) (Homo sapiens, UniProt P03952); test: Enzyme inhibition assay, human plasma kallikrein; conditions: for fold reduction in affinity to kallikrein compared to wildtype peptide: versus Ac-06-34-18(TMB)-NH2
# [2] = biological target: T1, Human factor XIIa (hfXIIa) (Homo sapiens, UniProt P00748); test: Inhibition of paralogous protease factor XIIa; format: biochemical
# T1 sequence (P00748 373-615 limits assumed): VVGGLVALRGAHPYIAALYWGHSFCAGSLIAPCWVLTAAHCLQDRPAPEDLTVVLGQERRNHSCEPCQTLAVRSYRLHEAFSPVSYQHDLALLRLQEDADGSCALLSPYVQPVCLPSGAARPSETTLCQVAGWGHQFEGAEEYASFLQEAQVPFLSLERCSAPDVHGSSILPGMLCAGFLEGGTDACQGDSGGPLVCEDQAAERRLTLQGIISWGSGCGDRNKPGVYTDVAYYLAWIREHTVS
# Description: as §1
SMILES,Ki [1] [nM],further results
CC(C)[C@@H]1NC(=O)[C@H](CCCNC(=N)N)NC(=O)[C@@H]2CSCc3cc(cc(c3)CSC[C@@H](C(=O)N[C@@H](C)C(N)=O)NC(=O)[C@H](CC(N)=O)NC1=O)CSC[C@H](NC(=O)[C@H](C)N)C(=O)N[C@@H](Cc1ccccc1)C(=O)N[C@@H](CCCCN)C(=O)N[C@@H](CCC(N)=O)C(=O)N2 [Peptide 06-94] (H-ACFKQCRVNCA-NH2; linker 2-6-10 via TBMB),0.7,IC50 (Human thrombin): > 10000 nM
CC(C)[C@@H]1NC(=O)[C@H](CCCNC(=N)N)NC(=O)[C@@H]2CSCc3cc(cc(c3)CSC[C@@H](C(=O)N[C@@H](C)C(N)=O)NC(=O)[C@H](C)NC1=O)CSC[C@H](NC(=O)[C@H](C)N)C(=O)N[C@@H](Cc1ccccc1)C(=O)N[C@@H](CCCCN)C(=O)N[C@@H](Cc1c[nH]cn1)C(=O)N2 [Peptide 3B8] (H-ACFKHCRVACA-NH2; linker 2-6-10 via TBMB),0.95,IC50 (Human thrombin): > 10000 nM
CC(=O)N[C@H]1CSCc2cc3cc(c2)CSC[C@H](NC(=O)[C@H](CCCNC(=N)N)NC(=O)[C@H](C)NC(=O)[C@@H]2CCCN2C(=O)[C@H](Cc2c[nH]c4ccccc24)N(C)C(=O)[C@H](CO)NC1=O)C(=O)N[C@@H](CC(C)C)C(=O)N[C@@H](Cc1c[nH]cn1)C(=O)N[C@@H](CCC(N)=O)C(=O)N[C@@H](CC(=O)O)C(=O)N[C@@H](CC(C)C)C(=O)N[C@H](C(N)=O)CSC3 [Ac-(06-34-18) NMeTrp2] (Ac-CS[NMeW]PARCLHQDLC-NH2; linker 1-7-13 via TBMB),228,–
C[C@H](N)C(=O)N[C@H]1CSCc2cc3cc(c2)CSC[C@H](NC(=O)[C@H](CC(N)=O)NC(=O)[C@H](CC(N)=O)NC(=O)[C@H](Cc2ccc(O)cc2)NC(=O)CNC(=O)CNC1=O)C(=O)N[C@@H](CCCNC(=N)N)C(=O)N[C@@H](C)C(=O)N[C@@H](Cc1ccccc1)C(=O)N[C@@H](CO)C(=O)N[C@@H](Cc1ccc(O)cc1)C(=O)N[C@H](C(=O)N[C@@H](C)C(N)=O)CSC3 [Peptide 1F7] (H-ACGGYNNCRAFSYCA-NH2; linker 2-8-14 via TBMB),2.2,–
CSCC[C@@H]1NC(=O)[C@H]([C@@H](C)O)NC(=O)[C@@H]2CSCc3cc(cc(c3)CSC[C@@H](C(=O)N[C@@H](C)C(N)=O)NC(=O)[C@H](Cc3c[nH]c4ccccc34)NC(=O)[C@H](CC(N)=O)NC(=O)[C@H](CCC(N)=O)NC1=O)CSC[C@H](NC(=O)[C@H](C)N)C(=O)N[C@@H]([C@@H](C)O)C(=O)N[C@@H](Cc1c[nH]c3ccccc13)C(=O)N1CCC[C@H]1C(=O)N[C@@H](C)C(=O)N[C@@H](CCCNC(=N)N)C(=O)N2 [06-A2*] (H-ACTWPARCTMQNWCA-NH2; linker 2-8-14 via TBMB),181,IC50 [2]: > 10000 nM
CC(=O)N[C@H]1CSCc2cc3cc(c2)CSC[C@@H](C(=O)N[C@@H](CC(C)C)C(=O)N[C@@H](Cc2c[nH]cn2)C(=O)N[C@@H](CCC(N)=O)C(=O)N[C@@H](CC(=O)O)C(=O)N[C@@H](CC(C)C)C(=O)N[C@H](C(N)=O)CSC3)N(C)C(=O)[C@H](CCCNC(=N)N)NC(=O)[C@H](C)NC(=O)[C@@H]2CCCN2C(=O)[C@H](Cc2c[nH]c3ccccc23)NC(=O)[C@H](CO)NC1=O [Ac-(06-34-18) NMeCys2] (Ac-CSWPAR[NMeC]LHQDLC-NH2; linker 1-7-13 via TBMB),418,–
CC(=O)N[C@H]1CSCc2cc3cc(c2)CSC[C@H](NC(=O)[C@H](CCCNC(=N)N)NC(=O)[C@H](C)NC(=O)[C@@H]2CCCN2C(=O)[C@@H](Cc2c[nH]c4ccccc24)NC(=O)[C@H](CO)NC1=O)C(=O)N[C@@H](CC(C)C)C(=O)N[C@@H](Cc1c[nH]cn1)C(=O)N[C@@H](CCC(N)=O)C(=O)N[C@@H](CC(=O)O)C(=O)N[C@@H](CC(C)C)C(=O)N[C@H](C(N)=O)CSC3 [Ac-(06-34-18) D-Trp2],7560,fold reduction in affinity to kallikrein compared to wildtype peptide [1]: 45000 fold
CC(=O)N[C@H]1CSCc2cc3cc(c2)CSC[C@H](NC(=O)[C@H](C)NC(=O)[C@@H]2CCCN2C(=O)[C@H](Cc2c[nH]c4ccccc24)NC(=O)[C@H](CO)NC1=O)C(=O)N[C@@H](CC(C)C)C(=O)N[C@@H](Cc1c[nH]cn1)C(=O)N[C@@H](CCC(N)=O)C(=O)N[C@@H](CC(=O)O)C(=O)N[C@@H](CC(C)C)C(=O)N[C@H](C(N)=O)CSC3 [Ac-(06-34-18) Δ Arg5] (Ac-CSWPACLHQDLC-NH2; linker 1-6-12 via TBMB),> 100000,–
CC(=O)N[C@H]1CSCc2cc3cc(c2)CSC[C@H](NC(=O)[C@H](CCCNC(=N)N)NC(=O)[C@H](CO)NC(=O)[C@H](Cc2c[nH]c4ccccc24)NC(=O)[C@@H]2CCCN2C(=O)[C@H](C)NC1=O)C(=O)N[C@@H](CC(C)C)C(=O)N[C@@H](Cc1c[nH]cn1)C(=O)N[C@@H](CCC(N)=O)C(=O)N[C@@H](CC(=O)O)C(=O)N[C@@H](CC(C)C)C(=O)N[C@H](C(N)=O)CSC3 [Ac-(06-34-18) Scram3] (Ac-CAPWSRCLHQDLC-NH2; linker 1-7-13 via TBMB),1890,–
CC(=O)N[C@H]1CSCc2cc3cc(c2)CSC[C@@H](NC(=O)[C@H](CCCNC(=N)N)NC(=O)[C@H](C)NC(=O)[C@@H]2CCCN2C(=O)[C@H](Cc2c[nH]c4ccccc24)NC(=O)[C@H](CO)NC1=O)C(=O)N[C@@H](CC(C)C)C(=O)N[C@@H](Cc1c[nH]cn1)C(=O)N[C@@H](CCC(N)=O)C(=O)N[C@@H](CC(=O)O)C(=O)N[C@@H](CC(C)C)C(=O)N[C@H](C(N)=O)CSC3 [Ac-(06-34-18) D-Cys2],234,–
CC(=O)N[C@H]1CSCc2cc3cc(c2)CSC[C@H](NC(=O)[C@H](CNC(=N)N)NC(=O)[C@H](C)NC(=O)[C@@H]2CCCN2C(=O)[C@H](Cc2c[nH]c4ccccc24)NC(=O)[C@H](CO)NC1=O)C(=O)N[C@@H](CC(C)C)C(=O)N[C@@H](Cc1c[nH]cn1)C(=O)N[C@@H](CCC(N)=O)C(=O)N[C@@H](CC(=O)O)C(=O)N[C@@H](CC(C)C)C(=O)N[C@H](C(N)=O)CSC3 [Ac-(06-34-18) Agp5],1770,–
CC(=O)N[C@H]1CSCc2cc3cc(c2)CSC[C@H](NC(=O)[C@H](CCCNC(=N)N)NC(=O)[C@H](Cc2c[nH]c4ccccc24)NC(=O)[C@H](C)NC(=O)[C@H](CO)NC(=O)[C@@H]2CCCN2C1=O)C(=O)N[C@@H](CC(C)C)C(=O)N[C@@H](Cc1c[nH]cn1)C(=O)N[C@@H](CCC(N)=O)C(=O)N[C@@H](CC(=O)O)C(=O)N[C@@H](CC(C)C)C(=O)N[C@H](C(N)=O)CSC3 [Ac-(06-34-18) Scram1] (Ac-CPSAWRCLHQDLC-NH2; linker 1-7-13 via TBMB),1090,–
CC(=O)N[C@H]1CSCc2cc3cc(c2)CSC[C@H](NC(=O)[C@@H](CCCNC(=N)N)NC(=O)[C@H](C)NC(=O)[C@@H]2CCCN2C(=O)[C@H](Cc2c[nH]c4ccccc24)NC(=O)[C@H](CO)NC1=O)C(=O)N[C@@H](CC(C)C)C(=O)N[C@@H](Cc1c[nH]cn1)C(=O)N[C@@H](CCC(N)=O)C(=O)N[C@@H](CC(=O)O)C(=O)N[C@@H](CC(C)C)C(=O)N[C@H](C(N)=O)CSC3 [Ac-(06-34-18) D-Arg5],52,fold reduction in affinity to kallikrein compared to wildtype peptide [1]: 300 fold
CC(C)[C@@H]1NC(=O)[C@H](CCCNC(=N)N)NC(=O)[C@@H]2CSCc3cc(cc(c3)CSC[C@@H](C(=O)N[C@@H](C)C(N)=O)NC(=O)[C@H](C)NC1=O)CSC[C@H](NC(=O)[C@H](C)N)C(=O)N[C@@H](Cc1ccccc1)C(=O)N1CCC[C@H]1C(=O)N[C@@H](CCCCN)C(=O)N2 [Peptide 3A3] (H-ACFPKCRVACA-NH2; linker 2-6-10 via TBMB),43.1,–
CC(=O)N[C@H]1CSCc2cc3cc(c2)CSC[C@H](NC(=O)[C@H](CCCNC(=N)N)NC(=O)[C@H](C)NC(=O)[C@@H]2CCCN2C(=O)[C@H](Cc2c[nH]c4ccccc24)NC(=O)[C@H](CO)N(C)C1=O)C(=O)N[C@@H](CC(C)C)C(=O)N[C@@H](Cc1c[nH]cn1)C(=O)N[C@@H](CCC(N)=O)C(=O)N[C@@H](CC(=O)O)C(=O)N[C@@H](CC(C)C)C(=O)N[C@H](C(N)=O)CSC3 [Ac-(06-34-18) NMeSer1] (Ac-C[NMeS]WPARCLHQDLC-NH2; linker 1-7-13 via TBMB),0.5,–
CC(=O)N[C@H]1CSCc2cc3cc(c2)CSC[C@H](NC(=O)[C@H](CCCNC(=N)N)NC(=O)[C@H](C)NC(=O)[C@H](CCC(N)=O)NC(=O)[C@H](C)NC(=O)[C@H](CO)NC1=O)C(=O)N[C@@H](CC(C)C)C(=O)N[C@@H](Cc1c[nH]cn1)C(=O)N[C@@H](CCC(N)=O)C(=O)N[C@@H](CC(=O)O)C(=O)N[C@@H](CC(C)C)C(=O)N[C@H](C(N)=O)CSC3 [Ac-(06-34-18) A2Q3] (Ac-CSAQARCLHQDLC-NH2; linker 1-7-13 via TBMB),15800,–
CC(C)[C@@H]1NC(=O)[C@H](CCCNC(=N)N)NC(=O)[C@@H]2CSCc3cc(cc(c3)CSC[C@@H](C(=O)N[C@@H](C)C(N)=O)NC(=O)[C@H](CC(N)=O)NC1=O)CSC[C@H](NC(=O)[C@H](C)N)C(=O)N[C@@H](Cc1ccccc1)C(=O)N[C@@H](CCCCN)C(=O)N[C@@H](CC(N)=O)C(=O)N2 [Peptide 3B2] (H-ACFKNCRVNCA-NH2; linker 2-6-10 via TBMB),9,–
CC(=O)N[C@H]1CSCc2cc3cc(c2)CSC[C@H](NC(=O)[C@@H]2CCCN2C(=O)[C@H](CO)NC(=O)[C@H](CCCNC(=N)N)NC(=O)[C@H](C)NC(=O)[C@H](Cc2c[nH]c4ccccc24)NC1=O)C(=O)N[C@@H](CC(C)C)C(=O)N[C@@H](Cc1c[nH]cn1)C(=O)N[C@@H](CCC(N)=O)C(=O)N[C@@H](CC(=O)O)C(=O)N[C@@H](CC(C)C)C(=O)N[C@H](C(N)=O)CSC3 [Ac-(06-34-18) Scram4] (Ac-CWARSPCLHQDLC-NH2; linker 1-7-13 via TBMB),67500,–
